Assay results from patent US20250052744A1, “Dyes and Uses Thereof” (The University of Liverpool, priority 2021, published 2025).

Assays:
Test in all cases: Qualitative dye staining on agarose pads (EVOS M7000)
Assay type in all cases: cell-based
Parameters in all cases: key to Relative fluorescent intensity: Very high: If the cells looked twice as big in the fluorescent channel, it was marked as having “very high” relative fluorescent intensity; High: if the cells looked bigger in the fluorescent channel, it was marked as having “high” relative fluorescent intensity; Medium: If the cells looked almost the same size in the fluorescent channel and the bright field, it was marked as having “medium” relative fluorescent intensity; Low: If the cells looked smaller in the fluorescent channel as compared to the brightfield but still the whole cell was visible, it was marked as having “low” relative fluorescent intensity; Negligible: If only a few traces of a cell was visible in the fluorescent channel, it was marked as having “negligible” relative fluorescent intensity
Klebsiella = conditions: Table 6 thresholds, DiSC3(5) 3 μM, SYBR Green I 10×, SYTO 13 3 μM, FM4-64 15 μM
Staphylococcus epidermis = conditions: DiSC3(5) 3 μM, SYBR Green I 10×, SYTO 13 3 μM, FM4-64 15 μM
Klebsiella pneumoniae = conditions: DiSC3(5) 3 μM, SYBR Green I 10×, SYTO 13 3 μM, FM4-64 15 μM
[1] = Table 6 thresholds, Staphylococcus epidermis
[2] = Table 8 sample Staphylococcus epidermis (044)
[3] = Table 8 sample Staphylococcus epidermis (045)
[4] = Table 8 sample Staphylococcus epidermis (046)
[5] = Table 7 commercial strain Klebsiella pneumoniae NCTC 9633
[6] = Table 7 commercial strain Klebsiella pneumoniae NCTC 14335
[7] = Table 8 sample Klebsiella pneumoniae (094)
[8] = Table 8 sample Klebsiella pneumoniae (095)

SMILES: CCCN1C(=CC=CC=Cc2sc3ccccc3[n+]2CCC)Sc2ccccc21.[I-] [DiSC3(5), 3,3′-Dipropylthiadicarbocyanine Iodide]
- Percentage of cells stained (Klebsiella): Few
- Relative fluorescent intensity (Klebsiella): Low-Medium
- Percentage of cells stained (Staphylococcus epidermis; [1]): Almost all
- Relative fluorescent intensity (Staphylococcus epidermis; [1]): Very high
- Percentage of cells stained (Staphylococcus epidermis; [2]): Almost all
- Relative fluorescent intensity (Staphylococcus epidermis; [2]): Very high
- Percentage of cells stained (Staphylococcus epidermis; [3]): Almost all
- Relative fluorescent intensity (Staphylococcus epidermis; [3]): Very high
- Percentage of cells stained (Staphylococcus epidermis; [4]): Almost all
- Relative fluorescent intensity (Staphylococcus epidermis; [4]): Very high
- Percentage of cells stained (Klebsiella pneumoniae; [5]): Half
- Relative fluorescent intensity (Klebsiella pneumoniae; [5]): Low
- Percentage of cells stained (Klebsiella pneumoniae; [6]): Almost all
- Relative fluorescent intensity (Klebsiella pneumoniae; [6]): Low
- Percentage of cells stained (Klebsiella pneumoniae; [7]): Half
- Relative fluorescent intensity (Klebsiella pneumoniae; [7]): Low
- Percentage of cells stained (Klebsiella pneumoniae; [8]): Almost all
- Relative fluorescent intensity (Klebsiella pneumoniae; [8]): Low

SMILES: CCN(CC)c1ccc(C=CC=CC=Cc2cc[n+](CCC[N+](CC)(CC)CC)cc2)cc1.[Br-].[Br-] [FM 4-64, N-(3-Triethylammoniumpropyl)-4-(6-(4-(Diethylamino) Phenyl) Hexatrienyl) Pyridinium Dibromide]
- Percentage of cells stained (Klebsiella): Few
- Relative fluorescent intensity (Klebsiella): Low
- Percentage of cells stained (Staphylococcus epidermis; [1]): Almost all
- Relative fluorescent intensity (Staphylococcus epidermis; [1]): Medium
- Percentage of cells stained (Staphylococcus epidermis; [2]): Almost all
- Relative fluorescent intensity (Staphylococcus epidermis; [2]): Medium
- Percentage of cells stained (Staphylococcus epidermis; [3]): Almost all
- Relative fluorescent intensity (Staphylococcus epidermis; [3]): Medium
- Percentage of cells stained (Staphylococcus epidermis; [4]): Almost all
- Relative fluorescent intensity (Staphylococcus epidermis; [4]): Medium
- Percentage of cells stained (Klebsiella pneumoniae; [5]): Few
- Relative fluorescent intensity (Klebsiella pneumoniae; [5]): Low
- Percentage of cells stained (Klebsiella pneumoniae; [6]): Half
- Relative fluorescent intensity (Klebsiella pneumoniae; [6]): Low
- Percentage of cells stained (Klebsiella pneumoniae; [7]): Few
- Relative fluorescent intensity (Klebsiella pneumoniae; [7]): Low
- Percentage of cells stained (Klebsiella pneumoniae; [8]): Few
- Relative fluorescent intensity (Klebsiella pneumoniae; [8]): Low

SMILES: CCCN(CCCN(C)C)c1cc(/C=C2/Sc3ccccc3N2C)c2ccccc2[n+]1-c1ccccc1 [SYBR Green I, N′,N′-dimethyl-N-[4-[(E)-(3-methyl-1,3-benzothiazol-2-ylidene)methyl]-1-phenylquinolin-1-ium-2-yl]-N-propylpropane-1,3-diamine]
- Percentage of cells stained (Klebsiella): Few
- Relative fluorescent intensity (Klebsiella): Low
- Percentage of cells stained (Staphylococcus epidermis; [1]): Almost all
- Relative fluorescent intensity (Staphylococcus epidermis; [1]): High
- Percentage of cells stained (Staphylococcus epidermis; [2]): Almost all
- Relative fluorescent intensity (Staphylococcus epidermis; [2]): High
- Percentage of cells stained (Staphylococcus epidermis; [3]): Almost all
- Relative fluorescent intensity (Staphylococcus epidermis; [3]): High
- Percentage of cells stained (Staphylococcus epidermis; [4]): Almost all
- Relative fluorescent intensity (Staphylococcus epidermis; [4]): High
- Percentage of cells stained (Klebsiella pneumoniae; [5]): Half
- Relative fluorescent intensity (Klebsiella pneumoniae; [5]): Low
- Percentage of cells stained (Klebsiella pneumoniae; [6]): Almost all
- Relative fluorescent intensity (Klebsiella pneumoniae; [6]): Low
- Percentage of cells stained (Klebsiella pneumoniae; [7]): Half
- Relative fluorescent intensity (Klebsiella pneumoniae; [7]): Low
- Percentage of cells stained (Klebsiella pneumoniae; [8]): Almost all
- Relative fluorescent intensity (Klebsiella pneumoniae; [8]): Low
